In publication PMC10120462, “Styrylquinazoline derivatives as ABL inhibitors selective for different DFG orientations” (Journal of Enzyme Inhibition and Medicinal Chemistry, 2023):

Columns and labels:
BTK = target: T1, BTK (Homo sapiens, UniProt Q06187); test: Tyrosine kinase assay (Kinase Selectivity System TK-2, ADP-Glo); assay type: biochemical; details: 1 h incubation, mean ± SD of four experiments
T1 construct: purchased Promega

BRK = target: T2, BRK (Homo sapiens, UniProt Q13882); test: as above; assay type: biochemical; details: 1 h incubation, mean ± SD of four experiments
T2 construct: purchased Promega

CSK = target: T3, CSK (Homo sapiens, UniProt P41240); test: as above; assay type: biochemical; details: 1 h incubation, mean ± SD of four experiments
T3 construct: purchased Promega

Fyn A = target: T4, Fyn A (Homo sapiens, UniProt P06241); test: as above; assay type: biochemical; details: 1 h incubation, mean ± SD of four experiments
T4 construct: purchased Promega
From the text: All newly synthesised derivatives were screened for their inhibitory potential towards eight non-receptor tyrosine kinases, such as ABL, BTK, BRK and Src family kinases, such as CSK, Lyn, Lck, Fyn and Src. […] To facilitate the analysis of the structure and enzymatic activity, all tested compounds were divided into four subgroups based on the main structural scaffolds (the general structure of each group is shown in the second column of Table 1). Series A, B, and C were subdivided according to the S^4-aryl substituent, while D represents the different styryl groups at the C^2-quinazoline position.
Herein, we used a kinase assay that contained fully expressed kinases with their regulatory domains, which are responsible for autoinhibition. The proteins are present in their unphosphorylated form and the procedure required supplementation with ATP. Importantly, autophosphorylation of ABL is dependent on […] concentration of the protein. Thus, our experimental conditions reflect the cellular process to be simulated. The luminescence signal detected after one hour of incubation with a peptide substrate was a measure of inhibition. Under these conditions, the question of whether the inhibitors tested bind to the ortho or allosteric site of the protein could be answered. […] To test this hypothesis, further molecular docking experiments were performed to more precisely determine the binding of the tested compounds to the ABL kinase.
To determine the inhibition of non-receptor tyrosine kinases, assays were performed using the kinase selectivity system TK-2 and the ADP-Glo Kinase Assay (both from Promega). The protocol was previously developed by our group and described in reports[12]^,[36]. Experiments were performed at least four times. Data are expressed as percentage of tyrosine kinase inhibitory activity after treatment with the derivatives tested.

Lyn B = target: T5, Lyn B (Homo sapiens, UniProt P07948); test: as above; assay type: biochemical; details: 1 h incubation, mean ± SD of four experiments
T5 construct: purchased Promega

K562 cells [1] = test: Cell cycle assay (Muse Cell-Cycle Kit, flow cytometry); assay type: cell-based, human; details: 16 h
Protocol: The interesting inhibitory potential of ABL kinase and the high antiproliferative activity of several styrylquinazoline derivatives prompted us to further investigate their mechanism of action.
K562 cells were seeded in 3 cm Petri dishes (Nunc) at a density of 150,000 cells per well and incubated under standard conditions at 37 °C for 24 h. […] After 16 h of treatment, assays were performed using a Muse Cell-Cycle Kit (Millipore) according to the supplier’s instructions. Briefly, leukaemia cells were collected, washed in cold PBS, and centrifuged. Cells were then fixed in ice-cold 70% ethanol and stored at −20 °C overnight. The next day, leukaemia cells were washed with cold PBS, centrifuged and resuspended in Muse™ Cell Cycle Reagent. Samples were incubated for 30 min at room temperature in the dark. After staining, the levels of cellular subpopulations in each cell cycle phase were determined using a Muse Cell Analyser (Millipore). Experiments were performed at least four times.

K562 cells [2] = test: Analysis of mRNA expression (RT-qPCR); assay type: cell-based, human; details: 16 h; IS1 50 µM, IS8 12 µM, IS10 20 µM, imatinib 2 µM, GNF-2 2 µM
From the text: In the next step, the inhibitory potential of the tested compounds at the gene and protein levels was verified in K562 cells. For this purpose, we examined changes in the expression of the ABL signalling pathway and ABL downstream targets after exposure to IS1, IS8 and IS10. […] The enhanced transcription of the ABL gene might be related to the low protein level that was reached after exposure to the tested drugs. Thus, the cellular machinery could induce increased protein synthesis to counteract the effects of inhibition. […] The second gene studied, SRC, is involved in signal transduction from growth factors and receptors. Similar to ABL, the Src protein has oncogenic activity and is overexpressed in cancer cells. It is also important to emphasise that both kinases form a specific direct signalling network, as […].
Reverse transcription was carried out with 1 μg total RNA using a ProtoScript M-MuLV First Strand cDNA Synthesis Kit (New England BioLabs). The RT-qPCR was performed using a CTX96 Real-Time PCR Detection System (Biorad) in a 10 μL reaction volume containing Luna Universal qPCR Master Mix (New England BioLabs), specific primer pair mix and cDNA. The PCR reaction was performed as follows: initial denaturation at 95 °C for 60 s; followed by 40 cycles of denaturation at 95 °C, 15 s; annealing (primer-specific temperature for 30 s) and extension at 72 °C for 30 s. Melting curve analysis was used to determine the specific PCR products. The results were analysed based on comparison of the expression of the target genes with the reference gene – HPRT1 using the 2^−^ΔΔ^CT method. Experiments were performed at least four times.

K562 cells [3] = test: Immunoblotting; assay type: cell-based, human; details: 16 h
From the text: Changes in the expression of the BCR-ABL and ABL proteins and their downstream targets, such as STAT5, Src, Akt and Fyn after treatment with the tested compounds were also examined. As shown in Figure 7(B), no significant changes in the phosphorylation of BCR-ABL were observed after treatment with the tested styrylquinazolines. […] For reference inhibitors, there were greater changes in the expression of this protein. There were also interesting changes in the downstream targets of ABL, STAT5 and Src. […] Unfortunately, contrary to our assumptions and earlier results, IS1 was ineffective in inhibiting ABL, STAT5, and Src phosphorylation at the concentrations used. However, this derivative caused downregulation of Fyn expression, which could confirm its high inhibitory potential from in vitro kinase assays. […] Thus, these compounds were capable of blocking the pro-survival pathway facilitated by Akt kinase.
Prior to the experiment, K562 cells were seeded at a density of 500,000 cells per well in 3 cm Petri dishes (Nunc). […] After 16 h of exposure, cells were collected, centrifuged, and lysed on ice in complete RIPA buffer containing Halt Protease Inhibitor Cocktail, Halt Phosphatase Inhibitor Cocktail and 0.5 M EDTA (all from Thermo Scientific). Protein quantification was measured using a BCA Protein Assay Kit (Thermo Scientific) according to the manufacturer’s protocol. Equal amounts of the proteins were electrophoresed on SDS-page gels and transferred to nitrocellulose membranes. After blocking in 5% non-fat milk prepared in TTBS (Tris buffered saline with Tween 20), membranes were incubated overnight at 4 °C with specific primary antibodies (all from Cell Signalling) at a dilution of 1:1000 for c-ABL, phospho-c-ABL, Stat5, phospho-Stat5, cyclin E1, p27, PARP, AIF, BID, Src, Fyn, Akt, phospho-Akt, and at a dilution of 1:2000 for reference proteins (vinculin, β-actin and GAPDH). The next day, membranes were washed and incubated with horseradish peroxidase (HRP)-conjugated secondary antibodies for 1 h at room temperature. Chemiluminescence signals were recorded after staining with SuperSignal™ West Pico Chemiluminescent Substrate (Thermo Scientific) using a ChemiDoc™ XRS + System (BioRad). Experiments were performed four to five times. Densitometric analysis was performed using ImageJ software (Wayne Rasband, National Institutes of Health, USA).

T3 sequence (P41240 whole entry): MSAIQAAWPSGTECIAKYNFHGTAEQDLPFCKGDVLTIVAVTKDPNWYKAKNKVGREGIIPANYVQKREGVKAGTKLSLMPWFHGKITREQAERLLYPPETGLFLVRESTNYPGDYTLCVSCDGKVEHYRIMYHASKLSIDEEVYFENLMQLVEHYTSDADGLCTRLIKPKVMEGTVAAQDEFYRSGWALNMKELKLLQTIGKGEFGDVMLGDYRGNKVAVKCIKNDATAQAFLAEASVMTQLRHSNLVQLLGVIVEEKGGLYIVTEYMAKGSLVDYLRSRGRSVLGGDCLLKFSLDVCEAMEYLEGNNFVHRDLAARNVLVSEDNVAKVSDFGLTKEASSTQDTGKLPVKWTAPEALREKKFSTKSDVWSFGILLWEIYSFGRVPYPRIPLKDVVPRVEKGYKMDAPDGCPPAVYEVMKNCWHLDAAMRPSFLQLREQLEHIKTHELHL
T5 sequence (P07948 1-491 isoform P07948-2): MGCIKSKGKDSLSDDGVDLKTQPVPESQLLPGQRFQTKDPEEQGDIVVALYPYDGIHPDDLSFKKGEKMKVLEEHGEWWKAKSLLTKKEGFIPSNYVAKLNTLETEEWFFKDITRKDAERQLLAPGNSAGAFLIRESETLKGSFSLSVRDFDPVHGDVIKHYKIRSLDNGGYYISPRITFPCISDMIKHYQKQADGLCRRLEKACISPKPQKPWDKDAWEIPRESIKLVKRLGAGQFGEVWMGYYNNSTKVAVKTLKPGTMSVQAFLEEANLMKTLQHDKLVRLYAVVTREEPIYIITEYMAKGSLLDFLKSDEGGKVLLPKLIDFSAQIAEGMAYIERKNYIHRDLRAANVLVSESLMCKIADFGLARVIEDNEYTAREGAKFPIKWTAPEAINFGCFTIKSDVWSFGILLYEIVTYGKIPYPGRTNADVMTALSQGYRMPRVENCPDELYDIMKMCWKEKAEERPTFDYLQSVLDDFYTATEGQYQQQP
T2 sequence (Q13882 whole entry): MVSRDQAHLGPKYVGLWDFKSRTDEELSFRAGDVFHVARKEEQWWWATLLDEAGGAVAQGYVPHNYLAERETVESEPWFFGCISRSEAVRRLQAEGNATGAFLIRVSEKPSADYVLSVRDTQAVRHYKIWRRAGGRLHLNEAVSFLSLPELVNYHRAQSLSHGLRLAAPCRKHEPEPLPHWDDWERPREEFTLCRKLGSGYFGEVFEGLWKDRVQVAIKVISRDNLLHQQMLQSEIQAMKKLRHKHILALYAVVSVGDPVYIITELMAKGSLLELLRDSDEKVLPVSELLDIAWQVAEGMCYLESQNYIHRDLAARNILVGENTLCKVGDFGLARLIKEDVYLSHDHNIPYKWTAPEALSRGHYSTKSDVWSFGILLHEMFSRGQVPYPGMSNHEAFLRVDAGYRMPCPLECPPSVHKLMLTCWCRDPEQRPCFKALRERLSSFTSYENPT
T4 sequence (P06241 whole entry): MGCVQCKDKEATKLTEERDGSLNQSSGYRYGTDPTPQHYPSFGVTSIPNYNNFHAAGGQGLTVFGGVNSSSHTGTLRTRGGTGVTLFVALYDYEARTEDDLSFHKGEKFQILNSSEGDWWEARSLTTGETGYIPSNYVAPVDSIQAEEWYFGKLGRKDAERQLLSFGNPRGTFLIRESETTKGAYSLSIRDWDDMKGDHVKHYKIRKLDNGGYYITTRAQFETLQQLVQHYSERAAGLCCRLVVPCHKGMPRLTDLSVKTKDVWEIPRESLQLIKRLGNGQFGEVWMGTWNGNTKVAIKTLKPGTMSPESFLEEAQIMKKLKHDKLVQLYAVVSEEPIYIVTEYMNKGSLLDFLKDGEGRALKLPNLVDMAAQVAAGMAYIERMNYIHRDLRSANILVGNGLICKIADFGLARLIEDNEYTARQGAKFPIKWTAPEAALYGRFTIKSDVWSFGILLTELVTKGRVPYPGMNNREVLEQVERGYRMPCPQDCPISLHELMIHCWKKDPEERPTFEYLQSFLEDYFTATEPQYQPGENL
T1 sequence (Q06187 whole entry): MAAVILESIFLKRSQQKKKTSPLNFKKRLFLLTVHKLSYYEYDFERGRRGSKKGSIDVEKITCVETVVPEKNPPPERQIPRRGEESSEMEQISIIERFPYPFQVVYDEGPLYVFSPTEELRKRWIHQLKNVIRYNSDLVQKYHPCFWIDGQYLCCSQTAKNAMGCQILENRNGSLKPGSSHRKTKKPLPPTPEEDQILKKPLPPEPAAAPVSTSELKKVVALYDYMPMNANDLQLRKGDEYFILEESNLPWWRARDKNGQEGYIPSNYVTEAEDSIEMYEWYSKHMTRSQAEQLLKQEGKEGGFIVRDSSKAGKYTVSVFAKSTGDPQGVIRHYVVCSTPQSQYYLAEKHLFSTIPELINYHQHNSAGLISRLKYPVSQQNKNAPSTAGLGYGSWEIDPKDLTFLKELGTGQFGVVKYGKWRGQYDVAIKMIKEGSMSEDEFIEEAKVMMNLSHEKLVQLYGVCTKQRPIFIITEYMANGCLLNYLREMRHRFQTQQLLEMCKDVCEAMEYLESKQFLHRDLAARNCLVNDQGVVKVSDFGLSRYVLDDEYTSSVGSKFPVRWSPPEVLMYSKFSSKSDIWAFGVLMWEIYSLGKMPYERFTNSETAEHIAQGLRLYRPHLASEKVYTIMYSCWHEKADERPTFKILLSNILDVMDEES

Compound: Cc1ccc(NC(=O)c2ccc(CN3CCN(C)CC3)cc2)cc1Nc1nccc(-c2cccnc2)n1 [Imatinib, imatinib, reference compound]
- inhibition at 0.5 µM (BTK): 0%
- inhibition at 0.5 µM (BRK): 0%
- inhibition at 0.5 µM (CSK): 0%
- inhibition at 0.5 µM (Fyn A): 0%
- inhibition at 0.5 µM (Lyn B): 0%
- Cell cycle arrest (phase) (K562 cells [1]): inhibition of G0/G1 phase
- CCNE2 expression (mRNA) (K562 cells [2]): increase
- Expression of the ABL gene (mRNA) (K562 cells [2]): slight non-significant decrease
- SRC mRNA levels (K562 cells [2]): significant decrease
- AIF protein (K562 cells [3]): significant increase
- Src protein expression / phosphorylation (K562 cells [3]): significant accumulation
- STAT5 phosphorylation (K562 cells [3]; at the concentrations used): stronger effect
